Legend:
[1] = biological target: T1, Neuropeptide Y receptor type 1 (Homo sapiens, UniProt P25929); test: Displacement of [125I]PYY from human NPY1 receptor in SK-N-MC cells; format: cell-based
T1 sequence (P25929 whole entry): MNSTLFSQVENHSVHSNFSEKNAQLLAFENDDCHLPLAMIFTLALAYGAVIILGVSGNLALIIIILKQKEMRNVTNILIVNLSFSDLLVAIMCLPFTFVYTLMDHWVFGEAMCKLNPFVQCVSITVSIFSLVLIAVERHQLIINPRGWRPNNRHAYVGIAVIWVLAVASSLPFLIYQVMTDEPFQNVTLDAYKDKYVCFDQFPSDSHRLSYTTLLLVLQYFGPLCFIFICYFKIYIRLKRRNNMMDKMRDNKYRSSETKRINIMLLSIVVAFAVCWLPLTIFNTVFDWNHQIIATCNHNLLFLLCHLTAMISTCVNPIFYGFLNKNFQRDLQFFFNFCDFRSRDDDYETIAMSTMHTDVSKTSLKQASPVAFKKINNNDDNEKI

[2] = biological target: T2, Neuropeptide Y receptor type 2 (Homo sapiens) (UniProt P49146); test: Agonist activity at human NPY2 receptor in KAN-TS cells at 1 uM by [35S]GTP-gamma-S binding assay; format: functional, cell-based
T2 sequence (whole entry): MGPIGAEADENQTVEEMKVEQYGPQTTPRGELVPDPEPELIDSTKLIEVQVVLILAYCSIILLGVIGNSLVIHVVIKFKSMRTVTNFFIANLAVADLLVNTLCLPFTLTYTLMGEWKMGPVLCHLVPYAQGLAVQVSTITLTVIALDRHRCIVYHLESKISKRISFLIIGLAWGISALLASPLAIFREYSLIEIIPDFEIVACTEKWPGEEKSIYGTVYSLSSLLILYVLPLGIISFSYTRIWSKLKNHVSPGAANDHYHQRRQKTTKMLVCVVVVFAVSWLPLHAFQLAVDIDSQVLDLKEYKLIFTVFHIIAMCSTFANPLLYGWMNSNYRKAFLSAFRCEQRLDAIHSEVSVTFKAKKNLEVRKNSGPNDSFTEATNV

[3] = biological target: T3, Neuropeptide Y receptor type 2 (Homo sapiens, UniProt P49146); test: Agonist activity at human NPY2 receptor in KAN-TS cells by [35S]GTP-gamma-S binding assay; format: functional, cell-based
T3 sequence (P49146 whole entry): T2 sequence (whole entry)

[4] = biological target: T3, Neuropeptide Y receptor type 2; test: Displacement of [125I]PYY from human NPY2 receptor in KAN-TS cells by SPA assay; format: cell-based
[5] = biological target: T4, Neuropeptide Y receptor type 5 (Homo sapiens, UniProt Q15761); test: Displacement of [125I]PYY from human NPY5 receptor in HEK293 cells; format: cell-based
T4 sequence (Q15761 whole entry): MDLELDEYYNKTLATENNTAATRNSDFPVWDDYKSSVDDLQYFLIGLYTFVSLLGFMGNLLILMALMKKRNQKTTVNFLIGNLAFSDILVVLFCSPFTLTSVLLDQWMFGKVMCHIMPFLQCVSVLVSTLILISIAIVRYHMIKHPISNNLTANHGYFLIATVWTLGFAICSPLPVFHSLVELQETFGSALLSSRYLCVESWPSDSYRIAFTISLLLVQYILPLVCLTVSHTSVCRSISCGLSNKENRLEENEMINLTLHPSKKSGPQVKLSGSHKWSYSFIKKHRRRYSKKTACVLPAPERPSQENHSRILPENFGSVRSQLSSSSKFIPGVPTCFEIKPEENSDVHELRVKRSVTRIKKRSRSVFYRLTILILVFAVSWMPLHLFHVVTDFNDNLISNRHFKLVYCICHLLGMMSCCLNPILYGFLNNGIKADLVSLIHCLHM

Mus musculus = test: Reduction of food intake in C57BL/6 mouse at 10 mg/kg, sc after 1 to 24 hrs; format: functional; parameters: scale not given: the % may be the effect or the level left; conditions: route subcutaneous

| Substance | Ki [1] | E/Emax [2] | EC50 [3] | Ki [4] | Ki [5] | Activity (Mus musculus) |
| --- | --- | --- | --- | --- | --- | --- |
| Ac-CLRHYLNLLTRQRY-NH2 | > 1000 nM | 94% | 33 nM | 8.2 nM | > 1000 nM |  |
| Ac-LRHYLNLLTRQRY-NH2 | 210 nM | 100% | 6 nM | 5 nM | > 1000 nM | 6% |
| Ac-LRHYLNLLTRQRYC-NH2 | > 1000 nM | 81% | 160 nM | 200 nM | > 1000 nM |  |

— ChEMBL document CHEMBL1148865, “A long-acting selective neuropeptide Y2 receptor PEGylated peptide agonist reduces food intake in mice” (Bioorg Med Chem Lett, 2007)
